{
  "source": "patent US9586951B2",
  "about": "(FUJIFILM Corporation, priority 2013, dated 2017)",
  "data": [
    {"target": "T1, ATM (Homo sapiens, UniProt Q13315)", "T1 construct": "detecting phosphorylation of Chk2 in a human non-small cell lung cancer cell line NCI-H460 (ATCC company); host or cells: NCI-H460 human non-small cell lung cancer cells", "T1 sequence (Q13315 whole entry)": "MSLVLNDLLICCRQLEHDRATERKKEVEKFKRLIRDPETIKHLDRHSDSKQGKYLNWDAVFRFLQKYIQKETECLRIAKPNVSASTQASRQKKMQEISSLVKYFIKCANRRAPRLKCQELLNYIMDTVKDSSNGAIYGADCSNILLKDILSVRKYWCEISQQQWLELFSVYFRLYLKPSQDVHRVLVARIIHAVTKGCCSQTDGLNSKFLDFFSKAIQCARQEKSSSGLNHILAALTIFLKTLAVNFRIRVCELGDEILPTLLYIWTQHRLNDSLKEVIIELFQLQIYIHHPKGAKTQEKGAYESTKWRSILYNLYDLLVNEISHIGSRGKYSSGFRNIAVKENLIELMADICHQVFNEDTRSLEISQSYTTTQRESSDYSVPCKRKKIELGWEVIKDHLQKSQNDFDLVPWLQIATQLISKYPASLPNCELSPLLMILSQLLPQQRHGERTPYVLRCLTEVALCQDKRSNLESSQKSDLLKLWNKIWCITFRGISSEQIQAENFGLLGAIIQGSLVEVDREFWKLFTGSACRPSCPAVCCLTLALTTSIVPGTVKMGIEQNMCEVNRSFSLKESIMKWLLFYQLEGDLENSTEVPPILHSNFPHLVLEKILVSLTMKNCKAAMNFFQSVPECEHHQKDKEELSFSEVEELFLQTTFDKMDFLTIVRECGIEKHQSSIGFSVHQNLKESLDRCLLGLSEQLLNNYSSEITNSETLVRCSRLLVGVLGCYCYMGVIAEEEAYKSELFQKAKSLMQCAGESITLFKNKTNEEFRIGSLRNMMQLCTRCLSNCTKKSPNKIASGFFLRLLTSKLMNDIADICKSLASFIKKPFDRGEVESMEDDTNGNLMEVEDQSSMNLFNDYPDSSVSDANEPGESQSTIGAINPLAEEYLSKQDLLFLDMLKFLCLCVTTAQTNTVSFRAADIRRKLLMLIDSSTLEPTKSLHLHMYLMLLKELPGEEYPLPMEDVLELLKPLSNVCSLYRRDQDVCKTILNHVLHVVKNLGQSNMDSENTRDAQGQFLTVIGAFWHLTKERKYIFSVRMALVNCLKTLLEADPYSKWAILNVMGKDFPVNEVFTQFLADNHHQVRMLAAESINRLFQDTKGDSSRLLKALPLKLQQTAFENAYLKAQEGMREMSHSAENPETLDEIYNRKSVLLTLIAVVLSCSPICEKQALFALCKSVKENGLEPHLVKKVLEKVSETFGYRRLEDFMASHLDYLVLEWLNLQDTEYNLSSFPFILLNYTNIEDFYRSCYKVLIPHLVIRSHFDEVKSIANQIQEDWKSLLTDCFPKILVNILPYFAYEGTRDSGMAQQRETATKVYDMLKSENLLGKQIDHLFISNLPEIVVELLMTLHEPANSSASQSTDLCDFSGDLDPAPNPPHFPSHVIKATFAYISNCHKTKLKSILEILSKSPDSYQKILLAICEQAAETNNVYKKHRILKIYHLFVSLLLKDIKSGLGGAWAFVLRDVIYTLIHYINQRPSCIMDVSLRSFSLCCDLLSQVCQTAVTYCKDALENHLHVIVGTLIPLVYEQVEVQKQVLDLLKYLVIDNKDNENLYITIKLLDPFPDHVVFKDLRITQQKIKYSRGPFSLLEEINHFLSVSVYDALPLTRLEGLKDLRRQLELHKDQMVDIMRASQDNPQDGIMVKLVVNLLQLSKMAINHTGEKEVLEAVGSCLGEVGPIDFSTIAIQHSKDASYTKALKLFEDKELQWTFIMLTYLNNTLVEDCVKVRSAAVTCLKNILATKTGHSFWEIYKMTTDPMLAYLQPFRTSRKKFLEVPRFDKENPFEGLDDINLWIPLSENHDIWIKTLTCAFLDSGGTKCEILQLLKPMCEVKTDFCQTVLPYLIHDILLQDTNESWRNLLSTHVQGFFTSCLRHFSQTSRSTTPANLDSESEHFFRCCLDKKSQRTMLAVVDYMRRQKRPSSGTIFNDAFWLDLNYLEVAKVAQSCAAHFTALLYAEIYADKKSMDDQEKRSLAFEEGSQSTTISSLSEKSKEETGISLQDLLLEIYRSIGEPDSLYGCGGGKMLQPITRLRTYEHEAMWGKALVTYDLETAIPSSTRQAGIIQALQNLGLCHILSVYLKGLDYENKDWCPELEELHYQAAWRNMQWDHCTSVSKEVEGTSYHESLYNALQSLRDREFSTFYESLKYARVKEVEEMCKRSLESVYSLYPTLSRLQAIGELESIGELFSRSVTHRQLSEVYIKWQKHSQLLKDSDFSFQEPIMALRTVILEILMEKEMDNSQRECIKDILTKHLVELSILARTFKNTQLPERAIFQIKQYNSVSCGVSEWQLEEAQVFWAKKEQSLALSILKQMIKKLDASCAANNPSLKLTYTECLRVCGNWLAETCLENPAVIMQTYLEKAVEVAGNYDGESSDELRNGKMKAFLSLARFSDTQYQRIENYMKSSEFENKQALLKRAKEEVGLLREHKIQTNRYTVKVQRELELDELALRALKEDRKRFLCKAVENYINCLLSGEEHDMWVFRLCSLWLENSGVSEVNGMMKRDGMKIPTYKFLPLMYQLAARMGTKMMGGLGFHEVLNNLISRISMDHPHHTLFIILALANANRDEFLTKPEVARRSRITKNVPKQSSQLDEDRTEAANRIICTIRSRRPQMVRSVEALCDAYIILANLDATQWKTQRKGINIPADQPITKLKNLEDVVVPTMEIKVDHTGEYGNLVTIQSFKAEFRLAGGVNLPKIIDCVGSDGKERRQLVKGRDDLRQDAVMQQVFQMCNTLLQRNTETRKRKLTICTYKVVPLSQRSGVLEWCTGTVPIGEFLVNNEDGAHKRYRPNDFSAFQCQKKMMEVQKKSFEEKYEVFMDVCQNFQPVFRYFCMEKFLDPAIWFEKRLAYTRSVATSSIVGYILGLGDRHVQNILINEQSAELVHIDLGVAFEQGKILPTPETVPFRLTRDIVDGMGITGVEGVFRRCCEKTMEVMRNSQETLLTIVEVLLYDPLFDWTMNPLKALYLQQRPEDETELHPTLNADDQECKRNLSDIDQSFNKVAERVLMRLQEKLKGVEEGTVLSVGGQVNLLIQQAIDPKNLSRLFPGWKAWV", "assay": "ATM inhibition test (phosphorylation of Chk2 generated by ionizing radiation, AlphaScreen SureFire)", "assay_type": "cell-based", "details": "phosphorylated Chk2 in NCI-H460 cells, ionizing radiation 8Gy, 1 hour after test compound treatment; read-out: ATM inhibitory activity", "method_in_brief": "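NCI-H460 cells, compound 1 h pre-treatment, 8Gy IR, further 1 h at 37° C in 5% CO2. Read-out: phospho-Chk2 via AlphaScreen SureFire. % inhibition relative to IR-induced signal window (irradiated vs non-irradiated drug-free wells).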", "units": {"IC50": "nM"}, "values": [
      {"molecule": "Cn1cc(-c2cncc(CNc3ccc4c(c3)Sc3cccc(-c5cc(N6CCOCC6)cc(=O)[nH]5)c3S4)c2)cn1", "note": "[Example 1-12-22, 6-(7-(((5-(1-Methyl-1H-pyrazol-4-yl)pyridin-3-yl)methyl)amino)thianthren-1-yl)-4-morpholino pyridin-2 (1H)-one]", "IC50": "100 to 500"},
      {"molecule": "O=c1cc(N2CCOCC2)cc(-c2cccc3c2Oc2ccc(NC4CCN(CCc5ccccc5)C4)cc2S3)[nH]1", "note": "(stereo not shown) [Example 4-6-1, 4-Morpholino-6-(8-((1-phenethylpyrrolidin-3-yl)amino)phenoxathiin-4-yl)pyridin-2(1H)-one]", "IC50": "100 to 500"},
      {"molecule": "Cc1cccc(C(CCN2CCCCC2)Nc2ccc3c(c2)Sc2cccc(-c4cc(N5CCOCC5)cc(=O)[nH]4)c2S3)n1", "note": "(stereo not shown) [Example 1-34-3, 6-(7-((1-(6-Methylpyridin-2-yl)-3-(piperidin-1-yl)propyl)amino)thianthren-1-yl)-4-morpholino pyridin-2(1H)-one]", "IC50": "< 100"},
      {"molecule": "O=c1cc(N2CCOCC2)cc(-c2cccc3c2Oc2ccc(NCc4ccnc(Cl)c4F)cc2C3)[nH]1", "note": "[Example 2-2-19, 6-(7-(((2-Chloro-3-fluoropyridin-4-yl)methyl)amino)-9H-xanthen-4-yl)-4-morpholino pyridin-2(1H)-one]", "IC50": "100 to 500"},
      {"molecule": "O=c1cc(N2CCOCC2)cc(-c2cccc3c2Oc2ccc(NC4CCN(CCCc5ccccc5)CC4)cc2C3)[nH]1", "note": "[Example 2-28-34, 4-Morpholino-6-(7-((1-(3-phenylpropyl)piperidin-4-yl)amino)-9H-xanthen-4-yl) pyridin-2(1H)-one]", "IC50": "500 to 2000"},
      {"molecule": "COCCN1CCOC(C(Nc2ccc3c(c2)Sc2cccc(-c4cc(N5CCOCC5)cc(=O)[nH]4)c2S3)c2ccc(C)cn2)C1", "note": "(single isomer, unassigned) [Example 1-56-9, 6-(7-(((4-(2-Methoxyethyl)morpholin-2-yl)(5-methylpyridin-2-yl)methyl)amino)thianthren-1-yl)-4-morpholino pyridin-2(1H)-one]", "IC50": "< 100"},
      {"molecule": "COc1cncc(CNc2ccc3c(c2)Cc2cccc(-c4cc(N5CCOCC5)cc(=O)[nH]4)c2S3)c1", "note": "[Example 3-8-9, 6-(7-(((5-Methoxypyridin-3-yl)methyl)amino)-9H-thioxanthen-4-yl)-4-morpholino pyridin-2 (1H)-one]", "IC50": "100 to 500"},
      {"molecule": "COC[C@H](CN(C)C1CCCCC1)Nc1ccc2c(c1)Sc1cccc(-c3cc(N4CCOCC4)cc(=O)[nH]3)c1S2", "note": "[Example 1-46-12, (S)-6-(7-((1-(Cyclohexyl (methyl)amino)-3-methoxypropan-2-yl)amino)thianthren-1-yl)-4-morpholino pyridin-2 (1H)-one]", "IC50": "100 to 500"},
      {"molecule": "O=c1cc(N2CCOCC2)cc(-c2cccc3c2Sc2ccc(NCc4ccc(Cl)nc4)cc2S3)[nH]1", "note": "[Example 1-44-2, 6-(7-(((6-Chloropyridin-3-yl)methyl)amino)thianthren-1-yl)-4-morpholino pyridin-2(1H)-one]", "IC50": "< 100"},
      {"molecule": "CC(Nc1ccc2c(c1)Sc1cccc(-c3cc(N4CCOCC4)cc(=O)[nH]3)c1S2)c1cccc(CN2CCCCC2)n1", "note": "(stereo not shown) [Example 1-12-109, 4-Morpholino-6-(7-((1-(6-(piperidin-1-ylmethyl)pyridin-2-yl)ethyl)amino)thianthren-1-yl)pyridin-2 (1H)-one]", "IC50": "100 to 500"},
      {"molecule": "Cc1ccnc(C(C)Nc2ccc3c(c2)Sc2cccc(-c4cc(N5CCOCC5)cc(=O)[nH]4)c2S3)n1", "note": "(single isomer, unassigned) [Example 1-12-144-2, 6-(7-((1-(4-methylpyrimidin-2-yl)ethyl)amino)thianthren-1-yl)-4-morpholinopyridin-2(1H)-one]", "IC50": "100 to 500"},
      {"molecule": "CC(=O)N1CCC(Nc2ccc3c(c2)Sc2cccc(-c4cc(N5CCOCC5)cc(=O)[nH]4)c2S3)CC1", "note": "[Example 1-12-115, 6-(7-((1-Acetylpiperidin-4-yl)amino)thianthren-1-yl)-4-morpholino pyridin-2 (1H)-one]", "IC50": "100 to 500"},
      {"molecule": "COc1ncc(C(C)Nc2ccc3c(c2)Cc2cccc(-c4cc(N5CCOCC5)cc(=O)[nH]4)c2O3)cn1", "note": "(stereo not shown) [Example 2-14-55, 6-(7-((1-(2-Methoxypyrimidin-5-yl)ethyl)amino)-9H-xanthen-4-yl)-4-morpholino pyridin-2 (1H)-one]", "IC50": "100 to 500"},
      {"molecule": "Cc1ccc(C(Nc2ccc3c(c2)Sc2cccc(-c4cc(N5CCOCC5)cc(=O)[nH]4)c2S3)[C@@H]2CCCN2C)nc1", "note": "(single isomer, unassigned) [Example 1-56-3]", "IC50": "< 100"},
      {"molecule": "O=c1cc(N2CCOCC2)cc(-c2cccc3c2Sc2ccc(NC4CN(Cc5cccnc5)C4)cc2S3)[nH]1", "note": "[Example 1-24-21, 4-Morpholino-6-(7-((1-(pyridin-3-ylmethyl)azetidin-3-yl)amino)thianthren-1-yl)pyridin-2(1H)-one]", "IC50": "100 to 500"},
      {"molecule": "Cc1ccc(CNc2ccc3c(c2)Cc2cccc(-c4cc(N5CCOCC5)cc(=O)[nH]4)c2O3)cn1", "note": "[Example 2-2-2, 6-(7-(((6-Methylpyridin-3-yl)methyl)amino)-9H-xanthen-4-yl)-4-morpholino pyridin-2 (1H)-one]", "IC50": "< 100"},
      {"molecule": "O=c1cc(N2CCOCC2)cc(-c2cccc3c2Oc2ccc(NCC4CCN(c5ccncc5)CC4)cc2C3)[nH]1", "note": "[Example 2-21-5]", "IC50": "500 to 2000"},
      {"molecule": "CC(=O)Nc1cncc(CNc2ccc3c(c2)Cc2cccc(-c4cc(N5CCOCC5)cc(=O)[nH]4)c2O3)c1", "note": "[Example 2-2-13, N-(5-(((5-(4-Morpholino-6-oxo-1,6-dihydropyridin-2-yl)-9H-xanthen-2-yl)amino)methyl)pyridin-3-yl)acetamide]", "IC50": "500 to 2000"},
      {"molecule": "COC[C@H](CN1CCOCC1)Nc1ccc2c(c1)Cc1cccc(-c3cc(N4CCOCC4)cc(=O)[nH]3)c1O2", "note": "[Example 12-5, (S)-6-(7-((1-methoxy-3-morpholinopropan-2-yl)amino)-9H-xanthen-4-yl)-4-morpholinopyridin-2(1H)-one]", "IC50": "100 to 500"},
      {"molecule": "CCCCN1CCC(Nc2ccc3c(c2)Cc2cccc(-c4cc(N5CCOCC5)cc(=O)[nH]4)c2O3)CC1", "note": "[Example 2-28-33, 6-(7-((1-Butylpiperidin-4-yl)amino)-9H-xanthen-4-yl)-4-morpholino pyridin-2 (1H)-one]", "IC50": "100 to 500"},
      {"molecule": "Cc1cnc(C(C)Nc2ccc3c(c2)Cc2cccc(-c4cc(N5CCOCC5)cc(=O)[nH]4)c2O3)cn1", "note": "(single isomer, unassigned) [Example 2-14-90-1, 6-(7-((1-(5-methylpyrazin-2-yl)ethyl)amino)-9H-xanthen-4-yl)-4-morpholinopyridin-2(1H)-one]", "IC50": "500 to 2000"},
      {"molecule": "Cc1ccncc1CNc1ccc2c(c1)Cc1cccc(-c3cc(N4CCOCC4)cc(=O)[nH]3)c1O2", "note": "[Example 2-14-5, 6-(7-(((4-Methylpyridin-3-yl)methyl)amino)-9H-xanthen-4-yl)-4-morpholino pyridin-2(1H)-one]", "IC50": "100 to 500"},
      {"molecule": "Cc1ccc(C(CO)Nc2ccc3c(c2)Sc2cccc(-c4cc(N5CCOCC5)cc(=O)[nH]4)c2S3)nc1", "note": "(stereo not shown) [Example 1-12-99, 6-(7-((2-Hydroxy-1-(5-methylpyridin-2-yl)ethyl)amino)thianthren-1-yl)-4-morpholino pyridin-2(1H)-one]", "IC50": "100 to 500"},
      {"molecule": "CN(C)Cc1cc(CNc2ccc3c(c2)Cc2cccc(-c4cc(N5CCOCC5)cc(=O)[nH]4)c2O3)ccn1", "note": "[Example 2-21-8, 6-(7-(((2-((Dimethylamino)methyl)pyridin-4-yl)methyl)amino)-9H-xanthen-4-yl)-4-morpholino pyridin-2(1H)-one]", "IC50": "500 to 2000"},
      {"molecule": "O=c1cc(N2CCOCC2)cc(-c2cccc3c2Oc2ccc(NC4CCCNC4)cc2S3)[nH]1", "note": "(stereo not shown) [Example 4-5, 4-morpholino-6-(8-(piperidin-3-ylamino)phenoxathiin-4-yl)pyridin-2(1H)-one]", "IC50": "500 to 2000"},
      {"molecule": "CCCC(Nc1ccc2c(c1)Sc1cccc(-c3cc(N4CCOCC4)cc(=O)[nH]3)c1O2)c1cncc(OC)c1", "note": "(stereo not shown) [Example 4-4-26, 6-(8-((1-(5-Methoxypyridin-3-yl)butyl)amino)phenoxathiin-4-yl)-4-morpholino pyridin-2(1H)-one]", "IC50": "100 to 500"},
      {"molecule": "O=c1cc(N2CCOCC2)cc(-c2cccc3c2Sc2ccc(NCc4cnccn4)cc2S3)[nH]1", "note": "[Example 1-12-42, 4-Morpholino-6-(7-((pyrazin-2-ylmethyl)amino)thianthren-1-yl) pyridin-2(1H)-one]", "IC50": "100 to 500"},
      {"molecule": "CC(C)(CN1CCOCC1)Nc1ccc2c(c1)Sc1cccc(-c3cc(N4CCOCC4)cc(=O)[nH]3)c1S2", "note": "[Example 1-46-2, 6-(7-((2-methyl-1-morpholinopropan-2-yl)amino)thianthren-1-yl)-4-morpholinopyridin-2(1H)-one]", "IC50": "100 to 500"},
      {"molecule": "Cc1ccccc1CCN1CCC(Nc2ccc3c(c2)Cc2cccc(-c4cc(N5CCOCC5)cc(=O)[nH]4)c2O3)CC1", "note": "[Example 2-30-4, 6-(7-((1-(2-Methylphenethyl)piperidin-4-yl)amino)-9H-xanthen-4-yl)-4-morpholino pyridin-2 (1H)-one]", "IC50": "100 to 500"},
      {"molecule": "O=c1cc(N2CCOCC2)cc(-c2cccc3c2Oc2ccc(NCc4cccc(C(F)(F)F)c4)cc2C3)[nH]1", "note": "[Example 2-3-14, 4-Morpholino-6-(7-((3-(trifluoromethyl)benzyl)amino)-9H-xanthen-4-yl) pyridin-2(1H)-one]", "IC50": "100 to 500"},
      {"molecule": "Cc1ccc(C(Nc2ccc3c(c2)Sc2cccc(-c4cc(N5CCOCC5)cc(=O)[nH]4)c2S3)C2CN(C)C2)nc1", "note": "(stereo not shown) [Example 1-22-8, 6-(7-(((1-Methylazetidin-3-yl)(5-methylpyridin-2-yl)methyl)amino)thianthren-1-yl)-4-morpholino pyridin-2 (1H)-one]", "IC50": "100 to 500"},
      {"molecule": "CN1CC(Nc2ccc3c(c2)Sc2cccc(-c4cc(N5CCOCC5)cc(=O)[nH]4)c2S3)C(N2CCOCC2)C1", "note": "(racemic) [Example 11-2, 6-(7-((1-Methyl-4-morpholinopyrrolidin-3-yl)amino)thianthren-1-yl)-4-morpholinopyridin-2(1H)-one]", "IC50": "100 to 500"},
      {"molecule": "O=C(CNc1ccc2c(c1)Sc1cccc(-c3cc(N4CCOCC4)cc(=O)[nH]3)c1S2)N1CCCCC1", "note": "[Example 1-18-2]", "IC50": "100 to 500"},
      {"molecule": "CCCCC(Nc1ccc2c(c1)Sc1cccc(-c3cc(N4CCOCC4)cc(=O)[nH]3)c1S2)[C@H](C)N1CCOCC1", "note": "(stereo partly drawn) [Example 1-21-2, 4-Morpholino-6-(7-(((2S)-2-morpholinoheptan-3-yl)amino)thianthren-1-yl) pyridin-2(1H)-one]", "IC50": "100 to 500"}
    ]}
  ]
}
